Measurements published in US20230203043A1, “NOVEL IMIDAZOPYRAZINE DERIVATIVES” (Hoffmann-La Roche Inc., priority 2020, published 2023).
Counter-ions that a name gives are not always drawn. Like-named read-outs stand apart in the source and are kept apart here.

System: Acinetobacter baumannii ATCC17961
Assay: Antimicrobial susceptibility testing: 90% growth inhibitory concentration (IC90) determination in Iso-Sensitest broth, OD600 growth
Assay type: cell-based
Conditions: Acinetobacter baumannii, ATCC17961, 16 h
Summary of the method: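 Twofold compound dilutions (e.g. 50 to 0.097 μM final) in Iso-Sensitest broth with ~5×10^(5) CFU/ml, 35±2 °C. OD600 read every 20 min over 16 h; IC90 from growth inhibition during logarithmic phase.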

[1] = read-out: A. baumannii ATCC 17961 IC90 (uM), strain ATCC 17961, OD600 growth over 16 h
[2] = strain ATCC 17961, OD600 growth over 16 h, read-out: A. baumannii ATCC 17961 IC90

Row | Compound | IC90 [2] [µM] | IC90 [1] [µM]
1 | CCc1cc(Nc2nccn3c(-c4cn(C(CO)CCl)nc4C(F)(F)F)cnc23)ccc1C(=O)NCCOCCN (stereo not drawn) [Example 278, N-[2-(2-aminoethoxy)ethyl]-4-[[3-[1-(1-chloro-3-hydroxypropan-2-yl)-3-(trifluoromethyl)pyrazol-4-yl]imidazo[1,2-a]pyrazin-8-yl]amino]-2-ethylbenzamide formate] |  | 0.332
2 | Cc1cc(Nc2nccn3c(-c4cn(CC(F)F)nc4C(F)(F)F)cnc23)cc(F)c1C(=O)N[C@H](C)CNC(=O)[C@H]1C[C@@H](N)C1 [Example 669, N-((R)-1-((1s,3S)-3-aminocyclobutane-1-carboxamido)propan-2-yl)-4-((3-(1-(2,2-difluoroethyl)-3-(trifluoromethyl)-1H-pyrazol-4-yl)imidazo[1,2-a]pyrazin-8-yl)amino)-2-fluoro-6-methylbenzamide] | 0.3 | 
3 | Cc1cc(Nc2nccn3c(-c4cn(C)nc4C(F)(F)F)cnc23)ccc1C(=O)NCCNC(=O)[C@@H]1C[C@@H](O)CN1 [Example 456, formic acid; (2S,4R)-4-hydroxy-N-[2-[[2-methyl-4-[[3-[1-methyl-3-(trifluoromethyl)pyrazol-4-yl]imidazo[1,2-a]pyrazin-8-yl]amino]benzoyl]amino]ethyl]pyrrolidine-2-carboxamide] |  | 2.74
4 | CCc1cc(Nc2nccn3c(-c4c[nH]nc4C(F)(F)F)cnc23)ccc1C(=O)NCCNC(=O)[C@@H]1C[C@@H](O)CN1 [Example 432, (2S,4R)-N-[2-[[2-ethyl-4-[[3-[3-(trifluoromethyl)-1H-pyrazol-4-yl]imidazo[1,2-a]pyrazin-8-yl]amino]benzoyl]amino]ethyl]-4-hydroxypyrrolidine-2-carboxamide formate] |  | 0.751
5 | CCc1cc(Nc2nccn3c(-c4cn(C)nc4C(F)(F)F)cnc23)ccc1C(=O)NCCNC(=O)[C@@H]1C[C@@H](O)CN1 [Example 445, (2S,4R)-N-[2-[[2-ethyl-4-[[3-[1-methyl-3-(trifluoromethyl)pyrazol-4-yl]imidazo[1,2-a]pyrazin-8-yl]amino]benzoyl]amino]ethyl]-4-hydroxypyrrolidine-2-carboxamide formate] |  | 1.48
6 | O=C(CC1CCNCC1)N1CCN(C(=O)c2ccc(Nc3nccn4c(-c5cn(CC(F)F)nc5C(F)(F)F)cnc34)cc2Cl)CC1 [Example 578, 1-(4-(2-chloro-4-((3-(1-(2,2-difluoroethyl)-3-(trifluoromethyl)-1H-pyrazol-4-yl)imidazo[1,2-a]pyrazin-8-yl)amino)benzoyl)piperazin-1-yl)-2-(piperidin-4-yl) ethan-1-one formate] |  | 0.394
7 | N#CCn1cc(-c2cnc3c(Nc4ccc(C(=O)N5CC(NC(=O)C6CCNCC6)C5)c(Cl)c4)nccn23)c(C(F)(F)F)n1 [Example 170, N-[1-[2-chloro-4-[[3-[1-(cyanomethyl)-3-(trifluoromethyl)pyrazol-4-yl]imidazo[1,2-a]pyrazin-8-yl]amino]benzoyl]azetidin-3-yl]piperidine-4-carboxamide] | 0.475 | 
8 | O=C(c1ccc(Nc2nccn3c(-c4cn(C(F)F)nc4C(F)(F)F)cnc23)cc1Cl)N1CCN(C(=O)[C@@H]2CCCN2)CC1 [Example 104, [2-chloro-4-[[3-[1-(difluoromethyl)-3-(trifluoromethyl)pyrazol-4-yl]imidazo[1,2-a]pyrazin-8-yl]amino]phenyl]-[4-[(2S)-pyrrolidine-2-carbonyl]piperazin-1-yl]methanone] | 0.227 | 
9 | N[C@@H]1CC[C@H](C(=O)N2CCN(C(=O)c3ccc(Nc4nccn5c(-c6c[nH]nc6C(F)(F)F)cnc45)cc3Cl)CC2)C1 [Example 342, [4-[(1S,3R)-3-aminocyclopentanecarbonyl]piperazin-1-yl]-[2-chloro-4-[[3-[3-(trifluoromethyl)-1H-pyrazol-4-yl]imidazo[1,2-a]pyrazin-8-yl]amino]phenyl]methanone formate] |  | 0.228
10 | CCc1cc(Nc2nccn3c(-c4cn(CC#N)nc4C(F)(F)F)cnc23)ccc1C(=O)NCCNC(=O)N1CC[C@@H](N)C1 [Example 520, (R)-3-amino-N-(2-(4-((3-(1-(cyanomethyl)-3-(trifluoromethyl)-1H-pyrazol-4-yl)imidazo [1,2-a]pyrazin-8-yl)amino)-2-ethylbenzamido)ethyl) pyrrolidine-1-carboxamide formate] | 0.27 | 
11 | Cc1cc(Nc2nccn3c(-c4c[nH]nc4C(F)(F)F)cnc23)ccc1C(=O)N1CCN(C(=O)C2(O)CCNCC2)CC1 [Example 460, formic acid; [4-(4-hydroxypiperidine-4-carbonyl)piperazin-1-yl]-[2-methyl-4-[[3-[3-(trifluoromethyl)-1H-pyrazol-4-yl]imidazo[1,2-a]pyrazin-8-yl]amino]phenyl]methanone] |  | 0.896
12 | Cc1cc(Nc2nccn3c(-c4cn(CC#N)nc4C(F)(F)F)cnc23)ccc1C(=O)N[C@H](C)C(=O)N1CCC(N)CC1 [Example 690, N-[(1R)-2-(4-amino-1-piperidyl)-1-methyl-2-oxo-ethyl]-4-[[3-[1-(cyanomethyl)-3-(trifluoromethyl)pyrazol-4-yl]imidazo[1,2-a]pyrazin-8-yl]amino]-2-methyl-benzamide formate] |  | 0.351
13 | CCc1cc(Nc2nccn3c(-c4cn(CC(F)F)nc4C(F)(F)F)cnc23)ccc1C(=O)NCCCNC(=O)[C@H]1CC[C@@H](N)C1 [Example 485, N-(3-((1S,3R)-3-aminocyclopentane-1-carboxamido)propsl)-4-((3-(1-(2,2-difluoroethyl)-3-(trifluoromethyl)-1H-pyrazol-4-yl)imidazo[1,2-a]pyrazin-8-yl)amino)-2-ethylbenzamide formate] |  | 0.189

Further lines, with some results ahead:

Row | IC90 [2] [µM] | Compound | IC90 [1] [µM]
14 | 0.322 | O=C(CC1CNC1)N1CCN(C(=O)c2ccc(Nc3nccn4c(-c5c[nH]nc5C(F)(F)F)cnc34)cc2Cl)CC1 [Example 133, 2-(azetidin-3-yl)-1-[4-[2-chloro-4-[[3-[3-(trifluoromethyl)-1H-pyrazol-4-yl]imidazo[1,2-a]pyrazin-8-yl]amino]benzoyl]piperazin-1-yl]ethanone] | 
15 | 0.252 | Cc1cc(Nc2nccn3c(-c4cn(CC(F)F)nc4C(F)(F)F)cnc23)cc(F)c1C(=O)N1CCN(C(=O)CN)CC1 [Example 650, 2-amino-1-(4-(4-((3-(1-(2,2-difluoroethyl)-3-(trifluoromethyl)-1H-pyrazol-4-yl)imidazo[1,2-a]pyrazin-8-yl)amino)-2-fluoro-6-methylbenzoyl)piperazin-1-yl)ethan-1-one] | 
16 | 0.413 | C#CCn1cc(-c2cnc3c(Nc4cc(C)c(C(=O)N5CCNCC5)c(F)c4)nccn23)c(C(F)(F)F)n1 [Example 67, [2-fluoro-6-methyl-4-[[3-[1-prop-2-ynyl-3-(trifluoromethyl)pyrazol-4-yl]imidazo[1,2-a]pyrazin-8-yl]amino]phenyl]-piperazin-1-ylmethanone] | 
17 | 0.19 | CCc1cc(Nc2nccn3c(-c4cn(CC(F)F)nc4C(F)(F)F)cnc23)ccc1C(=O)NCCNC(=O)[C@H]1C[C@@H](N)C1 [Example 624, cis-N-(2-((1s,3s)-3-aminocyclobutane-1-carboxamido)ethyl)-4-((3-(1-(2,2-difluoroethyl)-3-(trifluoromethyl)-1H-pyrazol-4-yl)imidazo[1,2-a]pyrazin-8-yl)amino)-2-ethylbenzamide formate] | 
18 | 0.481 | CCc1cc(Nc2nccn3c(-c4cn(CC(F)F)nc4C(F)(F)F)cnc23)ccc1C(=O)NCC(=O)N1CC(N)C1 [Example 733, N-[2-(3-aminoazetidin-1-yl)-2-oxo-ethyl]-4-[[3-[1-(2,2-difluoroethyl)-3-(trifluoromethyl)pyrazol-4-yl]imidazo[1,2-a]pyrazin-8-yl]amino]-2-ethyl-benzamide] | 
19 | 0.132 | C#CCNC(=O)c1c(C)cc(Nc2nccn3c(-c4cn(CC#N)nc4C(F)(F)F)cnc23)cc1F [Example 4, 4-[[3-[1-(cyanomethyl)-3-(trifluoromethyl)pyrazol-4-yl]imidazo[1,2-a]pyrazin-8-yl]amino]-2-fluoro-6-methyl-N-prop-2-ynylbenzamide] | 
20 | 0.4 | C#CCNCCCNC(=O)c1ccc(Nc2nccn3c(-c4c[nH]nc4C(F)(F)F)cnc23)cc1CC [Example 184, 2-ethyl-N-[3-(prop-2-ynylamino)propyl]-4-[[3-[3-(trifluoromethyl)-1H-pyrazol-4-yl]imidazo[1,2-a]pyrazin-8-yl]amino]benzamide] | 
21 | 0.157 | C=CCn1cc(-c2cnc3c(Nc4ccc(C(=O)N5CCC(CN)CC5)c(CC)c4)nccn23)c(C(F)(F)F)n1 [Example 53, [4-(aminomethyl)piperidin-1-yl]-[2-ethyl-4-[[3-[1-prop-2-enyl-3-(trifluoromethyl)pyrazol-4-yl]imidazo[1,2-a]pyrazin-8-yl]amino]phenyl] methanone] | 
22 | 0.34 | CCc1cc(Nc2nccn3c(-c4cn(CC(F)F)nc4C(F)(F)F)cnc23)ccc1C(=O)N[C@H](C)CNC(=O)[C@@H]1C[C@@H](O)CN1 [Example 684, (2S,4R)-N-((R)-2-(4-((3-(1-(2,2-difluoroethyl)-3-(trifluoromethyl)-1H-pyrazol-4-yl)imidazo[1,2-a]pyrazin-8-yl)amino)-2-ethylbenzamido)propyl)-4-hydroxypyrrolidine-2-carboxamide] | 
23 | 0.935 | Cc1cc(Nc2nccn3c(-c4c[nH]nc4C(F)(F)F)cnc23)ccc1S(C)(=O)=NCCCN (stereo not drawn) [Example 518, ((3-Aminopropyl)imino)(methyl)(2-methyl-4-((3-(3-(trifluoromethyl)-1H-pyrazol-4-yl)imidazo[1,2-α]pyrazin-8-yl)amino)phenyl)-λ^6-sulfanone] | 
24 | 0.277 | N#CCn1cc(-c2cnc3c(Nc4ccc(C(=O)NCC(=O)NC5CC(N)C5)c(Cl)c4)nccn23)c(C(F)(F)F)n1 (stereo not drawn) [Example 660, N-[2-[(3-aminocyclobutyl)amino]-2-oxo-ethyl]-2-chloro-4-[[3-[1-(cyanomethyl)-3-(trifluoromethyl)pyrazol-4-yl]imidazo[1,2-a]pyrazin-8-yl]amino] benzamide formate] | 
